Results taken from patent US5164385A, “Azetidine derivatives and hypotensive compositions thereof” (John Wyeth & Brother, Ltd., priority 1990, dated 1992).

Tests used:
[1] = tested on: arterial blood pressure and heart rate; test: Hypotensive activity in anaesthetised normotensive rats; type: in vivo, rat (Sprague-Dawley); details: iv
Method: The compounds are tested for hypotensive activity in anaesthetised normotensive rats. In this procedure adult male Sprague-Dawley rats weighing 200-400 g are anaesthetised with 70 mg/kg pentobarbitone sodium, i.p. The fermoral (or jugular) vein, the femoral (or carotid) artery, and the trachea are cannulated and the vascular canulae then flushed with 0.3 ml of heparinised saline (125 U/ml). The arterial blood pressure and heart rate are continuously monitored. Top-up doses of 6 or 12 mg/kg anaesthetic are administered as required until a stable base-line is obtained. A cumulative dose-response curve to the test compound is then obtained, using a 5 min dose interval. Each dose is administered in a volume of […] and flushed in with 0.5 ml saline. Systolic, diastolic, and mean arterial blood pressure and heart rate are then calculated 5 min after each dose and compared with the pre-dose value. Mean results from six rats are analysed using analysis of variants. The ED20 (ie the dose giving a 20% fall in mean arterial blood pressure) is also calculated. […] The minimum effective dose of this compound which produced a significant decrease in blood pressure was 1 μg/kg iv, and the ED20 was 5.2 μg/kg iv.

5-HT1 receptor = target: T1, 5-HT1 receptor (Rattus norvegicus, UniProt P19327); test: 5-HT1 receptor agonist activity in vivo: induction of the 5-HT behavioural syndrome in rats; details: iv, sequential up-down method
T1 construct: measuring their ability to induce the 5-HT behavioural syndrome in rats; from tissue; host or cells: living rats (in vivo, intravenous dosing); endogenous receptor of the central nervous system
T1 sequence (P19327 1-422): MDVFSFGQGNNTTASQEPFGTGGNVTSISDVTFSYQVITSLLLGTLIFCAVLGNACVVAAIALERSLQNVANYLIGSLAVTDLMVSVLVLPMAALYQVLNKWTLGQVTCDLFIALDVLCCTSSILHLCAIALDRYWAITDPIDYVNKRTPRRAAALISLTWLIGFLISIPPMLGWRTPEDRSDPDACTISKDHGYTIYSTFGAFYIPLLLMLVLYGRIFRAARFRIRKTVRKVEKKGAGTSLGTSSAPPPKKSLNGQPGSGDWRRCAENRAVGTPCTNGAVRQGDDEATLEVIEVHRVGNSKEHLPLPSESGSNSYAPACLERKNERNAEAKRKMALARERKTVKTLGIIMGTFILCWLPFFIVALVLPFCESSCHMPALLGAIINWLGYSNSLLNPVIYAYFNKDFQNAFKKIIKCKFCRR
Method: The compounds are evaluated for 5-HT1 receptor agonist activity in vivo by measuring their ability to induce the 5-HT behavioural syndrome in rats (A. R. Green, Neuropharmacology, 1984, 23 1521). Compounds which induce 5-HT-related behaviours are adjudged to be `active`, and a sequential up-down method (A. W. Kimball, W. T. Burnett, and D. G. Doherty, Radiation Research, 1957, 7, 1) is used to determine ED50 values for the compounds.

[2] = anaesthetised normotensive male Sprague-Dawley rats, cumulative dose-response, 5 min after each dose

Oc1cccc2c1CC(N1CCC1)CC2 (centres unmarked) [Example 3, 7-(1-Azetidinyl)-5,6,7,8-tetrahydro-1-naphthalenol]
ED20 ([1]; Rattus norvegicus, 5 min, anaesthetised normotensive rats, read-out: ED20 (dose giving a 20% fall in mean arterial blood pressure)): 5.2 µg/kg | minimal effective dose ([1]; Rattus norvegicus, 5 min, anaesthetised normotensive rats, read-out: minimum effective dose which produced a significant decrease in blood pressure): 1 µg/kg | effect on blood pressure [1, 2]: dose-related falls | effect on heart rate [1, 2]: dose-related falls | ED50 (5-HT1 receptor): 70 µg/kg
